Results taken from patent US8217042B2, “Pyridopyrazines and their use as modulators of kinases” (Zentaris GmbH, priority 2005, dated 2012).

Assays:
PI3K →pAkt = assay: Cellular substrate phosphorylation (Western blotting), PI3K substrate Akt; assay type: cell-based; settings: 5 h, tumour cell line
Procedure: (§1) This method enables a statement of whether the kinase modulator investigated achieves the desired effect in a cellular context too, i.e., in this case, a substrate protein downstream of the target kinase is examined for its phosphorylation status. To this end, the cells incubated with substance are lysed and the overall protein is separated on a reducing polyacrylamide gel. Subsequently, the proteins are transferred by means of Western blotting to a PVDF membrane and the substrate bands sought are made visible with specific antibodies and a suitable detection method. The substrate proteins downstream of the target kinases are detected simultaneously with an anti-phospho antibody which is specific in each case and simultaneously a total antibody which recognizes the substrate total protein. The duplex technology of the ODYSSEY imager (LiCOR) enables this simultaneous measurement. The intensity of the total substrate bands is employed to normalize and quantify the phosphorylation inhibition or activation.
(§2) Suitable tumour cell lines (e.g. BxPC3, Hct116 or MDA MB468) were seeded into 6-well microtitre plates in a defined cell count (e.g. 350 000 cells/well for BxPC3 and Hct116) in the particular standard complete media and then incubated overnight in an incubator at 37° C., 5% CO2 and 95% air humidity. The cells were then incubated further for a further 24 h under reduced-serum conditions, i.e. in the particular medium except at only 0.25% serum. The test substances were made up as stock solutions (10 mM) in DMSO and incubated with the cells at final concentrations of 5, 15.8 and 50 μM for 5 h. This was followed by cell lysis in 25 mM Tris, 150 mM NaCl, 10 mM sodium pyrophosphate, 2 mM EGTA, 25 mM beta-glycerophosphate, 25 mM NaF, 10% glycerol, 0.75% NP-40, 100 μM NaVO4 buffer. After protein quantification by means of BCA (bicinchonic acid protein assay kit, Sigma) assay, amounts of protein of about 20 μg per track were separated on a Lammli polyacrylamide gel and then transferred onto a PVDF membrane (Millipore) by means of semi-dry Western blotting at 0.8 mA/cm^2 for 1 h. This was followed by prehybridization of the membrane for 1 hour in I-block reagent (Applied Biosystems) and overnight incubation with the specific antibodies. To determine the Erk and PI3K inhibition, the next substrates Rsk1 downstream were detected with the total antibody (Rsk #sc-231g C-21, Santa Cruz) and the phospho antibody (Phospho-p90RSK (S380) #9341, NEB Cell Signalling) and Akt with the total antibody (Akt1 #sc-20, Santa Cruz) and the phospho antibody (Phospho-Akt (Ser 473) #9271, NEB Cell Signaling). After the membrane had been washed, the secondary antibodies were incubated with anti-rabbit IR Dye 800 (#611-732-127, Rockland) for the phospho antibody and anti-goat Alexa Fluor 680 (#A-21081, […]) for the total protein antibody. After incubation for 30 min at room temperature in the dark, the hybridization of the detection antibody was detected on the membrane by scanning in an ODYSSEY imager (LiCOR).

PI3Kalpha = target: T1, PI3Kalpha (Homo sapiens, UniProt P42336); assay: Cell-free kinase assay (ALPHA technology), PI3K-ALPHA; assay type: biochemical; settings: 100 μM ATP, recombinant human kinase
T1 construct: in some cases as full-length kinases, in some cases as truncated fragments; purchased Upstate 14-602
T1 sequence (P42336 whole entry, the tested form may be a part): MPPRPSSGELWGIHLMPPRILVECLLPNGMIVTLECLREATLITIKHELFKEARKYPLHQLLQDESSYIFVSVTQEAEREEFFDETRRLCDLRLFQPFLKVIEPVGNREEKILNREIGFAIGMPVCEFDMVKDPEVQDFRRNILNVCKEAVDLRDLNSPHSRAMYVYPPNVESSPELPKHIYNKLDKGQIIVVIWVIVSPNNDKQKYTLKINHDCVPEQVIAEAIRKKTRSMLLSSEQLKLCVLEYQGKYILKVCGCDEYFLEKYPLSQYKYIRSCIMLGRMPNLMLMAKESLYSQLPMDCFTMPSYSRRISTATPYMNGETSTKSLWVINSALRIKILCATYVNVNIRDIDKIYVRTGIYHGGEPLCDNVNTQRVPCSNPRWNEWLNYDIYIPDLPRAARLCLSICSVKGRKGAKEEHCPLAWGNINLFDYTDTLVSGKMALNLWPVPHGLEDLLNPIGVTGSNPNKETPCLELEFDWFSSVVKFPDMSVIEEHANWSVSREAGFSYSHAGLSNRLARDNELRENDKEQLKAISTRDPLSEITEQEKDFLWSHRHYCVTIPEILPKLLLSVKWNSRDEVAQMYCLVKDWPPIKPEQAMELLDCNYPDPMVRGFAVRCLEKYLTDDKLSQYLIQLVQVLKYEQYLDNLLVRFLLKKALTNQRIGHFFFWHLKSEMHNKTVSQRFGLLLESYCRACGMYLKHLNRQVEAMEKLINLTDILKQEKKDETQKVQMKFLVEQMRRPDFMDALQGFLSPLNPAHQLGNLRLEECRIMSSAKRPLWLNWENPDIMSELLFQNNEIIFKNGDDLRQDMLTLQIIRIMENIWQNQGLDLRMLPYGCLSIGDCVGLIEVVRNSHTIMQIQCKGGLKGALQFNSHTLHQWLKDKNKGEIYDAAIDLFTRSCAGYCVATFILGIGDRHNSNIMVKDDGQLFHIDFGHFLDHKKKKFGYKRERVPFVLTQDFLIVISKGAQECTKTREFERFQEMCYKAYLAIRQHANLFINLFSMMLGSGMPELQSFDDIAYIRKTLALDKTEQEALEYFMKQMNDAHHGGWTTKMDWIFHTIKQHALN
T1 sequence (P27986 whole entry partner, the tested form may be a part): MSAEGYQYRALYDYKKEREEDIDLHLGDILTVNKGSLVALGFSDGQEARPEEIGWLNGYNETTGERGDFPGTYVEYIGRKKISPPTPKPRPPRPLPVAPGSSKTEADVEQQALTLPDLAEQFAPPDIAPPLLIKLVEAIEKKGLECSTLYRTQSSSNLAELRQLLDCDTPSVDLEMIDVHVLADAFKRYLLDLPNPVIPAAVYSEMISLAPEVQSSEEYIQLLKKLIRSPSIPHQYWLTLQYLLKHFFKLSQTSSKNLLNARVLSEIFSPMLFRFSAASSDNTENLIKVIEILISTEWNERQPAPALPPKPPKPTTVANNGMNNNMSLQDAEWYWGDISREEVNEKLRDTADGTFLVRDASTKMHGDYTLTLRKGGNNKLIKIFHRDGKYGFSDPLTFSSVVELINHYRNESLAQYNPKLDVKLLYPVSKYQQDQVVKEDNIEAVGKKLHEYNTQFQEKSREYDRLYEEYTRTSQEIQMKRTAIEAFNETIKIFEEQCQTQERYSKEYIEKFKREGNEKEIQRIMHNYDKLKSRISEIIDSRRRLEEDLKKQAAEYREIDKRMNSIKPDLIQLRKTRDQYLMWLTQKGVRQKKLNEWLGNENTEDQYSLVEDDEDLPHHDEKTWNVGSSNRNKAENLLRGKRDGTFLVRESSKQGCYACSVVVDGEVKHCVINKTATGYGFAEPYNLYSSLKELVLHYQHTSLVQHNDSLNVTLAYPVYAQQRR
Procedure: (§3) The inhibitory effect of the inventive compounds was tested on various human serine/threonine kinases, tyrosine kinases and lipid kinases in enzymatic assays. Recombinant human kinases, for example Erk2, PI3Kalpha, -beta, -gamma, -delta, p38alpha, p38gamma, Jnk1, Jnk2 and others were used, in some cases as full-length kinases, in some cases as truncated fragments—but at least consisting of the functional kinase domains. The commercial kinase proteins (Proqinase, Upstate) were used as recombinant fusion proteins with GST (glutathione S-transferase) tag or His tag. Depending on the substrate type, the different kinase reactions were quantified by means of suitable ALPHA™ beads (PerkinElmer).
The substrate testing on the Erk assay is described in detail below. Selected test results of the Erk2, PI3Kalpha assays are cited below. […] The kinase reaction was then stopped by adding 10 μl of the ALPHA bead mix (10 μg/ml, #6760617/PerkinElmer), pre-incubated with anti-phospho MBP antibody (320 μM, #05-429/Upstate), in 25 mM Tris, 200 mM NaCl, 100 mM EDTA and 0.3% BSA, and left to stand overnight. • b) PI3K-ALPHAs (e.g. PI3Kalpha): The test substance, 1 ng of PI3Kalpha (#14-602, Upstate), 100 μM ATP and 20 μM PIP2 substrate (#P4508, Echelon) on a 384-well Optiplate (Perkin Elmer) for 1 h in 50 mM Hepes, 50 mM NaCl, 5 mM MgCl2, 0.05% Chaps, 5 mM DTT at pH 7.4. Subsequently, the kinase reaction was stopped by adding the ALPHA bead mix (10 μg/ml, #6760603/PerkinElmer), preincubated with 1 nM GST:Grp1 fusion protein (Upstate) and 15 nM biotinylated PIP3 (#C-39B6/Echelon) in 50 mM Hepes, 50 mM NaCl, 50 mM EDTA and 0.1% BSA, and left to stand overnight.
(§4) The fluorescence was detected the next morning in a Fusion™ alpha instrument (Perkin Elmer).
(§5) The calculation of % inhibition values per substance concentration was done by means of the following formula from the raw data determined in the Fusion™ alpha:
(§6) The controls were each determined 8 times, the substance samples each twice. 0% control contained neither any ATP nor any substrate; the 100% control contained no test substance. The IC50 values were determined with GraphPadPrism.

p38alpha = target: T2, p38alpha (Homo sapiens, UniProt Q16539); assay: Cell-free kinase assay (ALPHA technology), p38alpha; assay type: biochemical; settings: at 10 μM or 100 μM* ATP, recombinant human kinase
T2 construct: in some cases as full-length kinases, in some cases as truncated fragments
T2 sequence (Q16539 whole entry, the tested form may be a part): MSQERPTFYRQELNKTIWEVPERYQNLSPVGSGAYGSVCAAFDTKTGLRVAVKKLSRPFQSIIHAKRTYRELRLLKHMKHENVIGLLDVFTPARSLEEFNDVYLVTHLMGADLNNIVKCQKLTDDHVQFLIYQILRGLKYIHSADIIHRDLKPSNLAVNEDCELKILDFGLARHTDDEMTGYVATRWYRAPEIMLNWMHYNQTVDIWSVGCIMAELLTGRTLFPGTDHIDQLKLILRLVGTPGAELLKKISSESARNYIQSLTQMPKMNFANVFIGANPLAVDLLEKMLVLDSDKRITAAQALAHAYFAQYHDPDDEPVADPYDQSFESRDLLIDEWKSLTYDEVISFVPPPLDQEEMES
Procedure: as §3, with “(PerkinElmer). […]” for “(PerkinElmer).”
as §4, §5, §6

Erk →pRsk = assay: Cellular substrate phosphorylation (Western blotting), Erk substrate Rsk1; assay type: cell-based; settings: 5 h, tumour cell line
Procedure: as §1, §2

In the case of `CCNC(=O)Nc1ccc2ncc(Nc3ccc(C)c(NS(C)(=O)=O)c3)nc2n1` [Compound 49, N-{5-[6-(3-Ethylurea)pyrido[2,3-b]pyrazin-3-ylamino]-2-methylphenyl}methanesulphonamide], the inhibition at 50 µM (PI3K →pAkt) is reported as 90%, the IC50 (PI3Kalpha) is reported as 1900 nM and the IC50 (p38alpha) is reported as 4000 nM. For the same compound, the inhibition at 50 µM (Erk →pRsk) was 0%.
